Measured values from patent US20120251662A1, “ANTIMICROBIAL POWDERS FOR THE PREPARATION OF BAKERY PRODUCTS” (Caravan Ingredients Inc., priority 2011, published 2012).

tested on: mold; assay: Mold growth on white bread loaves (Dough Formulation A) coated with antimicrobial powders, Example 1
Experimental: All of the ingredients except for the salt were added to a 20 qt Hobart mixer, and mixed with a spiral hook on the 1st speed setting (low) for two minutes. […] The salt was added, followed by mixing at the 2nd speed setting for an additional 3 minutes until full dough development. […] Next, a Gemini Straight Grain Moulder was used, according to the settings in Table 4 below, to sheet and mould the dough pieces. The shaped dough pieces were then evenly coated with 2 grams of various antimicrobial powders containing different antimicrobial agents, as described below, and then placed into 1-lb loaf pans. […] After baking, the loaves were removed from the oven and […]. The loaves were cooled on wire racks for 1 hour and then bagged in poly bags with twist ties. […] Each of the antimicrobial powders used above was prepared by adding the ingredients in the tables below to a 5 qt Hobart mixer and blending with a paddle attachment for 10 minutes.

Compound | Mold Inhibition
CC(=O)O.CC(=O)[O-].[Na+] [Sodium Diacetate] | Moderately Effective
C/C=C/C=C/C(=O)O [Sorbic Acid] | Effective
C[C@@H]1C/C=C/C=C/C=C/C=C/[C@H](O[C@@H]2O[C@H](C)[C@@H](O)[C@H](N)[C@@H]2O)C[C@@H]2O[C@](O)(C[C@@H](O)C[C@H]3O[C@@H]3/C=C/C(=O)O1)C[C@H](O)[C@H]2C(=O)O [Natamycin, reference compound] | Effective
C/C=C/C=C/C(=O)[O-].[K+] [Potassium Sorbate] | Effective
O=C([O-])c1ccccc1.[Na+] [Sodium Benzoate] | Moderately Effective
CCC(=O)[O-].CCC(=O)[O-].[Ca+2] [Calcium Propionate] | Slightly Effective
Polylysine | Moderately Effective
CCC(=O)[O-].[Na+] [Sodium Propionate] | Moderately Effective
O=C(O)/C=C/C(=O)O [Fumaric Acid] | Slightly Effective
